Converted amounts (≈) assume the structure as drawn. Where no end group is shown, it is not given here.
Experiments:
[1] = system: human red blood cells; experiment: Hemolytic assay; type: cell-based; conditions: human, 1 h, 400 μM
Procedure, shortened: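 Washed human erythrocytes at 2% in isotonic saline incubated 1 h at 37 °C with serially diluted peptides. After centrifugation, released hemoglobin read at 545 nm relative to 1% Triton X-100; HC50 is the peptide concentration giving 50% lysis.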

[2] = system: S. epidermidis 1457; experiment: microbe, parasite or virus in culture; type: cell-based, Staphylococcus epidermidis; conditions: Staphylococcus epidermidis, MHB, Table 8, read-out: Antimicrobial activity (MIC) S. epidermidis 1457
Procedure, shortened: (§1)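 Peptides twofold serially diluted against exponential-phase resistant clinical isolates at ~10^5 CFU/mL in MHB (also diluted MHB, TSB or LB in one protocol), CLSI-based broth microdilution. Incubated overnight at 37° C., OD 600 nm read; MIC taken as lowest concentration without growth, reported as ranges.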

[3] = system: E. coli E423-17; type: cell-based, Escherichia coli; conditions: MHB 100%
[4] = system: P. aeruginosa E411-17; experiment: Membrane depolarization (DiBAC4(3)); type: cell-based, Pseudomonas aeruginosa; conditions: Example 2, PBS with glucose
Protocol: Bacterial membrane depolarization was conducted (Marks, et al. (2013) PLoS One 8(5):e63158). Briefly, an overnight culture of MRSA USA300 or P. aeruginosa E411-17 was inoculated into TSB and grown to exponential phase. Bacteria were washed with 1×PBS, re-suspended in twice the volume of 1×PBS containing 25 mM glucose, and incubated at 37° C. for 15 minutes. Then, 500 nM (final concentration) of the DiBAC4 (3) bis-(1, 3-dibutylbarbituric acid) trimethine oxonol (ANASPEC, CA) was added and vortexed gently. Aliquots of 90 μL of the energized bacteria solution were loaded to the 96 well plates (Corning COSTAR, AZ) and placed in a FLUOstar® Omega microplate reader (BMG LABTECH, NC). Fluorescence was read for 20 minutes at excitation and emission wavelengths of 485 nm and 520 nm, respectively. Then, 10 μL of peptide solutions was added and fluorescence readings were recorded for 40 minutes. Triton® X-100 (0.1%) was used as a positive control.

[5] = system: MRSA USA300; experiment: Biofilm inhibition; type: cell-based, Staphylococcus aureus; conditions: 0.5 to 2×MIC, 24 h
Protocol: Biofilm Inhibition. MRSA USA300 (10^5 CFU/mL) was prepared from the exponential phase. […] Media were then pipetted out, and the wells were washed with 1×PBS to remove planktonic cells. Live cells in biofilms were quantitated by XTT as described above.

[6] = target: T1, chymotrypsin (Bos taurus, UniProt P00766); type: in vitro ADME, mammalian
T1 construct: purchased Thermo Fisher Scientific
Protocol: (§2) A solution of peptide/protease (40:1 molar ratio) was made in phosphate-buffered saline (PBS; pH 7.1, Gibco, NY) and incubated at 37° C. for 1 hour. As controls, peptides without proteases were also incubated in the same manner. Then, aliquots of 10 μL were transferred to a 96-well polystyrene microplate and mixed with the exponential-phase MRSA USA300 culture as performed in the antibacterial activity assays above.

[7] = system: K. pneumoniae E406-17; type: cell-based, Klebsiella pneumoniae
Procedure, shortened: as §1

[8] = system: A. baumannii B28-16; type: cell-based, Acinetobacter baumannii; conditions: B28-16
Procedure, shortened: as §1

[9] = system: E. coli E423-17; experiment: Membrane depolarization (DiBAC4(3)); type: cell-based, Escherichia coli; conditions: Example 1
[10] = target: T2, pepsin (Sus scrofa, UniProt P00791); type: in vitro ADME, mammalian
T2 construct: purchased Thermo Fisher Scientific
T2 sequence (P00791 60-385): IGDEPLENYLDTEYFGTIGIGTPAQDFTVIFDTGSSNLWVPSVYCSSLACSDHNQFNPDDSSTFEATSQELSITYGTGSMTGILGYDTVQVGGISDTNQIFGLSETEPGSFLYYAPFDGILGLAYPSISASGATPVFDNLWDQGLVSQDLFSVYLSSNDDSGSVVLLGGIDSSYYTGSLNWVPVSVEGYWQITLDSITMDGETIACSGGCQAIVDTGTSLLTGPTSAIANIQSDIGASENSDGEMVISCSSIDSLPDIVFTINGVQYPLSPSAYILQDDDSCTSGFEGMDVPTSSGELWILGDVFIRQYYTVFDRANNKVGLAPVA
Protocol: as §2

## CCCCCCCCCC(=O)N[C@@H](Cc1c[nH]c2ccccc12)C(=O)N[C@H](CC(N)=O)C(=O)N[C@@H](CC(=O)O)C(=O)N[C@@H]1C(=O)NCC(=O)N[C@@H](CCCN)C(=O)N[C@@H](CC(=O)O)C(=O)N[C@H](C)C(=O)N[C@@H](CC(=O)O)C(=O)NCC(=O)N[C@H](CO)C(=O)N[C@@H]([C@H](C)CC(=O)O)C(=O)N[C@@H](CC(=O)c2ccccc2N)C(=O)O[C@@H]1C [Daptomycin]
[1]
  hemolysis: did not lyse human red blood cells even at 400 μM
[2]
  MIC: 0.5 to 1 µM (≈ 0.81 to 1.62 µg/mL)

## CC[C@H](C)[C@H](NC(=O)[C@H](CCCCN)NC(=O)[C@H](CCC(=O)O)NC(=O)[C@H](CCCCN)NC(=O)[C@H](CO)NC(=O)[C@H](CCCCN)NC(=O)[C@H](CCCNC(=N)N)NC(=O)[C@H](Cc1ccccc1)NC(=O)[C@H](Cc1ccccc1)NC(=O)[C@H](CC(=O)O)NC(=O)CNC(=O)[C@H](CC(C)C)NC(=O)[C@@H](N)CC(C)C)C(=O)NCC(=O)N[C@@H](CCCCN)C(=O)N[C@@H](CCC(=O)O)C(=O)N[C@@H](Cc1ccccc1)C(=O)N[C@@H](CCCCN)C(=O)N[C@@H](CCCNC(=N)N)C(=O)N[C@H](C(=O)N[C@H](C(=O)N[C@@H](CCC(N)=O)C(=O)N[C@@H](CCCNC(=N)N)C(=O)N[C@H](C(=O)N[C@@H](CCCCN)C(=O)N[C@@H](CC(=O)O)C(=O)N[C@@H](Cc1ccccc1)C(=O)N[C@@H](CC(C)C)C(=O)N[C@@H](CCCNC(=N)N)C(=O)N[C@@H](CC(N)=O)C(=O)N[C@@H](CC(C)C)C(=O)N[C@H](C(=O)N1CCC[C@H]1C(=O)N[C@@H](CCCNC(=N)N)C(=O)N[C@H](C(=O)N[C@@H](CCC(=O)O)C(=O)N[C@@H](CO)C(=O)O)[C@@H](C)O)C(C)C)[C@@H](C)CC)C(C)C)[C@@H](C)CC [LL-37]
[3]
  Antimicrobial activity (MIC): active
[4]
  membrane depolarization: most powerful in membrane depolarization

## RRWWRWWR-NH2 [W543]
[5]
  inhibition of biofilm formation: more effective than daptomycin
[6]
  activity after protease incubation: started to lose activity
[7]
  Activity (MIC) K. pneumoniae: >32 µM
[8]
  Activity (MIC) A. baumannii: >32 µM
[9]
  membrane depolarization: some depolarization
[10]
  activity after protease incubation: retained antibacterial activity

— patent US20250101062A1, “ANTIMICROBIAL PEPTIDES” (Board of Regents of the University of Nebraska, priority 2023, published 2025)
